Results taken from patent US20240308995A1, “O-GLYCOPROTEIN-2-ACETAMIDO-2-DEOXY-3-D-GLUCOPYRANOSIDASE INHIBITORS” (BIOGEN MA INC., priority 2018, published 2024).
Where two headings read alike, the source gives them in different places. Marks after values point to notes of the source that are not given here.

Legend:
[1] = system: P-gp (MDR1); experiment: MDR1-MDCK Efflux Ratio Assay; type: in vitro ADME; conditions: dog, read-out: MDR1-MDCK Efflux Ratio (B-A/A-B)
Protocol: MDR1-MDCK cell monolayers were grown to confluence on microporous polyester membranes in 96-well Corning insert plates. The permeability assay buffer was Hanks' Balanced Salt Solution containing 10 mM HEPES at pH of 7.4. Loperamide (1 μM) was used as a positive control P-gp substrate. Propranolol and Bestatin (1 μM) were used as high and low permeability comparators, respectively. Test compounds or positive control P-gp substrate/permeability comprators were added to respective apical and basolateral chambers for bidirectional assessment of permeability. Receiver buffer (transport buffer supplemented with 1% bovine serum albumin) was added to respective receiver chambers. MDR1-MDCK cells were incubated with test compounds at 37° C. with 5% CO2 for 2 hr. Samples were collected from the donor chamber at both 0 and 120 minutes, and from the receiver chamber at 120 minutes. Test and control compound concentrations were determined using LC-MS/MS analysis. Each determination was performed in triplicate. The apparent permeability (Papp), efflux ratio and mass balance (percent recovery) were calculated as follows: [formula] where: dCr/dt is the cumulative concentration in the receiver compartment versus time in μM s^−1 Vr is the volume of the receiver compartment in cm^3 Vd is the volume of the donor compartment in cm^3 A is the area of the insert (0.143 cm^2 for 96-well insert) CE is the estimated experimental concentration (Time=0) of the dosing solution Cr^final is the concentration of the receiver at the end of the incubation period Cd^final is the concentration of the donor at the end of the incubation period.

[2] = molecular target: Recombinant full length human OGA enzyme (Homo sapiens (Human), UniProt O60502); experiment: OGA Enzyme Inhibition Biochemical Assay; conditions: 1 nM OGA, 100 μM 4-MUGlcNAc, pH 6.4
Protocol: Recombinant full length human OGA enzyme was purchased from Origene. 4-MUGlcNAc substrate was purchased from Sigma. All other reagents were purchased from Sigma or Fisher. Assay buffer consists of the McIlvaine buffer system, pH 6.4 (0.2M Na2HPO4 mixed with 0.1M citric acid) and 0.01% BSA. […] Reactions were incubated for 90 minutes at room temperature and quenched with 40 μl of 3M glycine, pH 10 and read on a Perkin Elmer Envision plate reader (Ex: 355 nm/Em: 460 nm). Compounds were tested with a 10-point dose-response starting from 20 μM with a 4-fold dilution. Data was fit using GraphPad Prism using a 4-parameter fit with variable slope.

[3] = molecular target: OGA (S400 O-GLCNAC), HEK-293T cells transfected with Tau-V5 (Homo sapiens (Human), UniProt O60502); experiment: Cellular OGA-Tau MSD Assay; type: cell-based
Protocol: HEK-293T cells were transfected with […] and Tau-V5 plasmids using Lipofectamine and grown overnight. Next day, the cells were collected and re-plated at 1×10^5 cells per well in 96 well plates. Cells were incubated for 4 hr at 37° C., before compounds were added at 1 uM, with 3-fold dilutions in a 10-point titration. Cell plates were incubated with compounds overnight at 37° C. The next day media was removed from wells by gentle aspiration and 120 ul of 1× Cell Lysis buffer mixed with protease and phosphatase cocktail added to each well. A freeze thaw was performed at -80° C., then mixed before transferring 50 ul to MSD plates coated with V5-tag antibody to capture Tau. MSD Plates were incubated overnight at 4° C., on a plate shaker. The following day, plates were washed and incubated with Tau-[…]-GlcNAc antibody for 2 hr and then developed with rabbit Sulfo-tag antibody. Final read out was carried out on an MSD 600 reader. The data was analyzed using Graph Pad or Genedata, the data was normalized and % activity versus log of compound concentration was plotted. The IC50 values were obtained from a 4 parameter fit.

[4] = Rat Liver Microsome Stability Assay; type: in vitro ADME
[5] = MDCK-MDR1, pH 7.4, MDR1-MDCK cells, 2 hr, pH 7.4
[6] = HEK-293T cells, Tau-S400-GlcNAc MSD readout
[7] = rat liver microsomes, 1 uM compound
[8] = MDCK-MDR1, pH 7.4, repeated assay, value marked with asterisk (*)
[9] = repeated assay, value marked with asterisk (*)

Sequence of Recombinant full length human OGA enzyme (O60502 whole entry): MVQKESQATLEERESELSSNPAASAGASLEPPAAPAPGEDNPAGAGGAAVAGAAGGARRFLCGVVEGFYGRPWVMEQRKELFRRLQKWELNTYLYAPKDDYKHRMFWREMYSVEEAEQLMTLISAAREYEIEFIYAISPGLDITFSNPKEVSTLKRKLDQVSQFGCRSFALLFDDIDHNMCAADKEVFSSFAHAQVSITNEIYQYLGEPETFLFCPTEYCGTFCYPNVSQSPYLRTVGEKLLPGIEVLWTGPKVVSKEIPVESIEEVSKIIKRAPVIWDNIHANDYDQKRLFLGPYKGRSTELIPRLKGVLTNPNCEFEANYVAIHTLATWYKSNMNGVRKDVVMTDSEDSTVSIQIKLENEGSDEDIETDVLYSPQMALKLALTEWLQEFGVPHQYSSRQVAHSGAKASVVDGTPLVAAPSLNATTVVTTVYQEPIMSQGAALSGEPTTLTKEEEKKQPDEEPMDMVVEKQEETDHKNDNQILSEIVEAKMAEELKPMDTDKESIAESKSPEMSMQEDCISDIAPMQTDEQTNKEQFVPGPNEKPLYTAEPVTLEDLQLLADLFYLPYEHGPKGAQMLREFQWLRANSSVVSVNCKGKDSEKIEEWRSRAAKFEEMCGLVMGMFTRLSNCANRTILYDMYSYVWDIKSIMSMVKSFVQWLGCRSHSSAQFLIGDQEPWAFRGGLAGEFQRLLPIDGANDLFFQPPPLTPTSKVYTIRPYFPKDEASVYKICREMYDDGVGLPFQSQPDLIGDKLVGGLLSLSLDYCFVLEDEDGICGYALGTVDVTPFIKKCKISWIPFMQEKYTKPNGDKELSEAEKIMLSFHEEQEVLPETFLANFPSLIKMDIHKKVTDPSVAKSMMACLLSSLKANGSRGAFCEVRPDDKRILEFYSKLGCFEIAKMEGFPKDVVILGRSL
Sequence of OGA (S400 O-GLCNAC), HEK-293T cells transfected with Tau-V5 (O60502 whole entry): as above

SMILES	efflux ratio at 2 h [1, 5]	IC50 [2] [nM]	IC50 [3, 6] [nM]	RLM % Qh (%) [4, 7] [%]	efflux ratio at 2 h [1, 8]	IC50 [3, 9] [nM]	RLM % Qh (%) [4, 9]
CC(=O)Nc1ncc(CN2C[C@H](Oc3ccnc(C)c3)C[C@@H]2C)s1 [Example 1-82, N-(5-(((2S,4R)-2-methyl-4-((2-methylpyridin-4-yl)oxy)pyrrolidin-1-yl)methyl)thiazol-2-yl)acetamide]	16.7	< 1	2	38	–	–	–
CC(=O)Nc1ncc(CN2C[C@H](Oc3ccc(F)cn3)C[C@@H]2C)s1 [Example 1-11, N-(5-(((2S,4R)-4-((5-fluoropyridin-2-yl)oxy)-2-methylpyrrolidin-1-yl)methyl)thiazol-2-yl)acetamide]	1.1	< 1	3	73	1.9	–	–
CCNc1cc(O[C@@H]2C[C@H](C)N(Cc3cnc(NC(C)=O)s3)C2)ncn1 [Example 1-135, N-(5-(((2S,4R)-4-((6-(ethylamino)pyrimidin-4-yl)oxy)-2-methylpyrrolidin-1-yl)methyl)thiazol-2-yl)acetamide]	76.5	< 1	1	36	–	–	–
COc1cc(O[C@@H]2CC[C@H](C)N(Cc3sc(NC(C)=O)nc3F)C2)ncn1 [Example 1-35, N-(4-fluoro-5-(((2S,5R)-5-((6-methoxypyrimidin-4-yl)oxy)-2-methylpiperidin-1-yl)methyl)thiazol-2-yl)acetamide]	4.3	< 1	2	92	–	–	–
COc1ncnc(O[C@@H]2C[C@H](C)N(Cc3cnc(NC(C)=O)s3)C2)c1C [Example 1-71, N-(5-(((2S,4R)-4-((6-methoxy-5-methylpyrimidin-4-yl)oxy)-2-methylpyrrolidin-1-yl)methyl)thiazol-2-yl)acetamide]	3.5	1.7	16	76	–	–	–
COc1cccc(O[C@@H]2C[C@H](C)N(Cc3sc(NC(C)=O)nc3F)C2)n1 [Example 1-99, N-(4-fluoro-5-(((2S,4R)-4-((6-methoxypyridin-2-yl)oxy)-2-methylpyrrolidin-1-yl)methyl)thiazol-2-yl)acetamide]	2.2	< 1	1	95	–	–	–
[2H]C(c1cnc(NC(C)=O)s1)N1C[C@H](Oc2cc(OC)ncn2)C[C@@H]1C (single isomer, unassigned) [Example 1-158]	5.2	< 1	3	29	–	–	–
CC(=O)Nc1ncc(CN2CCC[C@@H](Oc3ccc(F)cn3)C2)s1 [Example 1-3, (R)—N-(5-((3-((5-fluoropyridin-2-yl)oxy)piperidin-1-yl)methyl)thiazol-2-yl)acetamide]	2.3	140	38	82	2.2	–	–
COc1cc(O[C@@H]2C[C@@H](C)N(Cc3cnc(NC(C)=O)s3)C2)ncn1 [Example 1-38, N-(5-(((2R,4R)-4-((6-methoxypyrimidin-4-yl)oxy)-2-methylpyrrolidin-1-yl)methyl)thiazol-2-yl)acetamide]	3.9	250	> 1000	32	–	–	–
COc1cncc(O[C@@H]2C[C@H](C)N(Cc3cnc(NC(C)=O)s3)C2)n1 [Example 1-12, N-(5-(((2S,4R)-4-((6-methoxypyrazin-2-yl)oxy)-2-methylpyrrolidin-1-yl)methyl)thiazol-2-yl)acetamide]	10	< 1	3	97	8.9	2	98* %
CC(=O)Nc1nc(F)c(CN2C[C@H](Oc3ncccc3F)C[C@@H]2C)s1 [Example 1-94, N-(4-fluoro-5-(((2S,4R)-4-((3-fluoropyridin-2-yl)oxy)-2-methylpyrrolidin-1-yl)methyl)thiazol-2-yl)acetamide]	1.8	< 1	2	91	–	–	–
CC(=O)Nc1ncc(CN2C[C@H](Oc3cnc(C)cn3)C[C@@H]2C)s1 [Example 1-69, N-(5-(((2S,4R)-2-methyl-4-((5-methylpyrazin-2-yl)oxy)pyrrolidin-1-yl)methyl)thiazol-2-yl)acetamide]	6.1	< 1	3	59	–	–	–
COc1cc(O[C@H]2C[C@H](C)N(Cc3cnc(NC(C)=O)s3)C2)ncn1 [Example 1-39, N-(5-(((2S,4S)-4-((6-methoxypyrimidin-4-yl)oxy)-2-methylpyrrolidin-1-yl)methyl)thiazol-2-yl)acetamide]	4.5	55	30	57	–	–	–
COc1cnc(O[C@@H]2C[C@H](C)N(Cc3sc(NC(C)=O)nc3F)C2)cn1 [Example 1-105, N-(4-fluoro-5-(((2S,4R)-4-((5-methoxypyrazin-2-yl)oxy)-2-methylpyrrolidin-1-yl)methyl)thiazol-2-yl)acetamide]	2.4	< 1	2	74	–	–	–
COc1ccc(O[C@@H]2C[C@H](C)N(Cc3sc(NC(C)=O)nc3F)C2)cn1 [Example 1-114, N-(4-fluoro-5-(((2S,4R)-4-((6-methoxypyridin-3-yl)oxy)-2-methylpyrrolidin-1-yl)methyl)thiazol-2-yl)acetamide]	1.9	< 1	2	69	–	–	–
CC(=O)Nc1ncc(CN2C[C@H](Oc3cc(N4CCC4)ncn3)C[C@@H]2C)s1 [Example 1-133, N-(5-(((2S,4R)-4-((6-(azetidin-1-yl)pyrimidin-4-yl)oxy)-2-methylpyrrolidin-1-yl)methyl)thiazol-2-yl)acetamide]	23.6	< 1	1	43	–	–	–
[2H][C@@]1(Oc2cc(OC)ncn2)C[C@H](C)N(Cc2cnc(NC(C)=O)s2)C1 (single isomer, unassigned) [Example 1-163]	5.9	< 1	4	30	–	–	–
CC(=O)Nc1ncc(CN2C[C@@H](Oc3ccc(C)nc3)C[C@H]2C)s1 (stereo in doubt) [Example 1-116, N-(5-(((2R,4S)-2-methyl-4-((6-methylpyridin-3-yl)oxy)pyrrolidin-1-yl)methyl)thiazol-2-yl)acetamide]	19.6	< 1	1	55	–	–	–
[2H][C@]1(Oc2cc(OC)ncn2)C[C@H](C)N(Cc2cnc(NC(C)=O)s2)C1 [Example 1-164, N-(5-(((2S,4S)-4-((6-methoxypyrimidin-4-yl)oxy)-2-methylpyrrolidin-1-yl-4-d)methyl)thiazol-2-yl)acetamide]	3.8	9.7	35	49	–	–	–
CC(=O)Nc1ncc(CN2C[C@H](Oc3cc(N4CCOCC4)ncn3)C[C@@H]2C)s1 [Example 1-130, N-(5-(((2S,4R)-2-methyl-4-((6-morpholinopyrimidin-4-yl)oxy)pyrrolidin-1-yl)methyl)thiazol-2-yl)acetamide]	30.3	< 1	3	37	–	–	–
